What was measured:
[1] = tested on: NCI-H1341 (Small Cell Lung Carcinoma); assay: Bliss excess, mean over the matrix (fraction); higher = more synergy
Procedure, shortened: (§1)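 Cell lines in DMEM/F12 or RPMI with 10% FBS were plated in 1536-well plates, held 24 hours at 37°C, 5% CO2, then given two-drug dose matrices for 72 hours (DMSO typically 0.2%). Viability was read by CellTiter-Glo 2.0 luminescence and scaled as inhibition from 0 (vehicle wells) to 1 (blank wells). Combination Emax is the second-highest inhibition in the matrix; Bliss excess is observed combination effect minus expected EA + EB − EA·EB, EA and EB being single-agent effects.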

[2] = tested on: SKG-IIIa (Cervical Carcinoma); assay: as above
Procedure, shortened: as §1

[3] = tested on: SUP-M2 (T-Cell Non-Hodgkin's Lymphoma); assay: as above
Procedure, shortened: as §1

[4] = tested on: SiHa (Cervical Carcinoma); assay: combination Emax (second highest fraction inhibited in the dose matrix, 72 h); higher = more inhibition; extreme values may be limits of the assay
Procedure, shortened: as §1

[5] = tested on: DBTRG-05MG (Glioblastoma); assay: as above
Procedure, shortened: as §1

[6] = tested on: SK-CO-1 (Colorectal Carcinoma); assay: as above
Procedure, shortened: as §1

[7] = tested on: NCI-H1341 (Small Cell Lung Carcinoma); assay: as above
Procedure, shortened: as §1

IST-MEL1 (Melanoma) = assay: as above
Procedure, shortened: as §1

[8] = tested on: OAW-28 (Ovarian Carcinoma); assay: as above
Procedure, shortened: as §1

[9] = tested on: ZR-75-30 (Breast Carcinoma); assay: as above
Procedure, shortened: as §1

[10] = tested on: MS-1 (Small Cell Lung Carcinoma); assay: as above
Procedure, shortened: as §1

KALS-1 (Glioblastoma) = assay: as above
Procedure, shortened: as §1

[11] = tested on: PL4 (Pancreatic Carcinoma); assay: as above
Procedure, shortened: as §1

[12] = tested on: MM1S (Plasma Cell Myeloma); assay: as above
Procedure, shortened: as §1

ES6 (Ewing's Sarcoma) = assay: as above
Procedure, shortened: as §1

NCI-H2373 (Mesothelioma) = assay: as above
Procedure, shortened: as §1

GAK (Melanoma) = assay: as above
Procedure, shortened: as §1

[13] = tested on: P30-OHK (B-Lymphoblastic Leukemia); assay: as above
Procedure, shortened: as §1

T47D (Breast Carcinoma) = assay: as above
Procedure, shortened: as §1

[14] = tested on: NAMALWA (Burkitt's Lymphoma); assay: as above
Procedure, shortened: as §1
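For Bliss excess, mean over the matrix in this document: after 72 h of two-drug dosing.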

SMILES | Bliss excess [1] | Bliss excess [2] | Bliss excess [3] | combination Emax [4] | combination Emax [5] | combination Emax [6] | combination Emax [7] | combination Emax (IST-MEL1 (Melanoma)) | combination Emax [8] | combination Emax [9] | combination Emax [10] | combination Emax (KALS-1 (Glioblastoma)) | combination Emax [11] | combination Emax [12] | combination Emax (ES6 (Ewing's Sarcoma)) | combination Emax (NCI-H2373 (Mesothelioma)) | combination Emax (GAK (Melanoma)) | combination Emax [13] | combination Emax (T47D (Breast Carcinoma)) | combination Emax [14]
Cc1cc2ncnn2cc1Nc1ncc2c(n1)n(C1CCOCC1)c(=O)n2C [AZD7648] + CCN(CCO)CCCOc1ccc2c(Nc3cc(CC(=O)Nc4cccc(F)c4)[nH]n3)ncnc2c1 [AZD2811] (first compound max 10 µM, 7x7, partner max 1 µM) | 0.0568 | -0.0161 | -0.0267 | 0.335 | 0.228 | 0.549 | 0.371 | 0.457 | 0.217 | 0.141 | 0.342 | 0.386 | 0.142 | 0.346 | 0.407 | 0.534 | 0.237 | 0.85 | 0.456 | 0.432
Cc1cc2ncnn2cc1Nc1ncc2c(n1)n(C1CCOCC1)c(=O)n2C [AZD7648] + O=C(c1cc(Cc2n[nH]c(=O)c3ccccc23)ccc1F)N1CCN(C(=O)C2CC2)CC1 [Olaparib] (first compound max 10 µM, 7x7, partner max 10 µM) | 0.013 | -0.0678 | 0.0721 | 0.143 | 0.0842 | 0.488 | 0.433 | 0.24 | 0.188 | 0.12 | 0.399 | 0.18 | 0.28 | 0.339 | 0.222 | 0.572 | 0.0973 | 0.364 | 0.313 | 0.578
CN(C)CCCOc1ccc(-c2ccc3ncc4c(c3c2)n(C2CCOCC2)c(=O)n4C)cn1 [AZD0156] + CCN(CCO)CCCOc1ccc2c(Nc3cc(CC(=O)Nc4cccc(F)c4)[nH]n3)ncnc2c1 [AZD2811] (first compound max 1 µM, 7x7, partner max 1 µM) | 0.005 | -0.05 | -0.0286 | 0.135 | 0.154 | 0.798 | 0.409 | 0.231 | 0.175 | 0.135 | 0.224 | 0.214 | 0.256 | 0.34 | 0.176 | 0.354 | 0.198 | 0.834 | 0.282 | 0.402
Cc1c2c(nn1C)CSCc1cc(n(C)n1)CSc1cc(c3ccccc3c1)OCCCc1c(C(=O)O)n(C)c3c-2c(Cl)ccc13 [AZD5991] + CN(C)CCCOc1ccc(-c2ccc3ncc4c(c3c2)n(C2CCOCC2)c(=O)n4C)cn1 [AZD0156] (first compound max 1 µM, 7x7, partner max 1 µM) | 0.0072 | 0.0104 | -0.0012 | 0.326 | 0.221 | 0.363 | 0.379 | 0.196 | 0.25 | 0.286 | 0.524 | 0.273 | 0.357 | 0.992 | 0.279 | 0.272 | 0.266 | 0.71 | 0.749 | 0.996
CN(CCO)CC[C@H](CSc1ccccc1)Nc1ccc(S(=O)(=O)NC(=O)c2ccc(N3CCC([C@@H](O)c4ccccc4-c4ccc(Cl)cc4)CC3)cc2)cc1S(=O)(=O)C(F)(F)F [AZD4320] + Cc1cc2ncnn2cc1Nc1ncc2c(n1)n(C1CCOCC1)c(=O)n2C [AZD7648] (first compound max 1 µM, 7x7, partner max 10 µM) | 0.0254 | -0.0614 | 0.036 | 0.12 | 0.827 | 0.646 | 0.999 | 0.415 | 0.899 | 0.126 | 0.586 | 0.343 | 0.421 | 1 | 0.268 | 0.374 | 0.314 | 0.982 | 0.312 | 0.323
COc1nnc2ccc(N3CCC(c4ccc(OCCN5CCN(C)C(=O)[C@H]5C)cc4)CC3)nn12 [AZD5153] + C=CCn1c(=O)c2cnc(Nc3ccc(N4CCN(C)CC4)cc3)nc2n1-c1cccc(C(C)(C)O)n1 [AZD1775] (first compound max 1 µM, partner max 1 µM) | -0.0121 | -0.0221 | -0.0123 | 0.621 | 0.369 | 0.56 | 0.972 | 0.524 | 0.701 | 0.309 | 0.964 | 0.723 | 0.662 | 0.734 | 0.516 | 0.399 | 0.471 | 1 | 0.505 | 0.969
NC1(C(=O)N[C@@H](CCO)c2ccc(Cl)cc2)CCN(c2ncnc3[nH]ccc23)CC1 [Capivasertib] + COc1nnc2ccc(N3CCC(c4ccc(OCCN5CCN(C)C(=O)[C@H]5C)cc4)CC3)nn12 [AZD5153] (first compound max 10 µM, 7x7, partner max 1 µM) | 0.0383 | 0.0067 | -0.0322 | 0.644 | 0.206 | 0.438 | 0.851 | 0.451 | 0.493 | 0.353 | 0.931 | 0.682 | 0.613 | 1 | 0.518 | 0.591 | 0.376 | 1 | 0.477 | 0.961
COc1cccc(OCCCN)c1-c1cc(Nc2cnc(C#N)cn2)n[nH]1 [Prexasertib] + Cc1cc2ncnn2cc1Nc1ncc2c(n1)n(C1CCOCC1)c(=O)n2C [AZD7648] (first compound max 1 µM, 7x7, partner max 10 µM) | 0.0194 | 0.0223 | 0.0696 | 0.386 | 0.315 | 0.593 | 0.919 | 0.772 | 0.462 | 0.17 | 0.971 | 0.866 | 0.836 | 0.858 | 0.625 | 0.531 | 0.708 | 0.984 | 0.512 | 0.994
COc1nnc2ccc(N3CCC(c4ccc(OCCN5CCN(C)C(=O)[C@H]5C)cc4)CC3)nn12 [AZD5153] + CC1(C)CCC(CN2CCN(c3ccc(C(=O)NS(=O)(=O)c4ccc(NCC5CCOCC5)c([N+](=O)[O-])c4)c(Oc4cnc5[nH]ccc5c4)c3)CC2)=C(c2ccc(Cl)cc2)C1 [Venetoclax] (first compound max 1 µM, 7x7, partner max 1 µM) | -0.03 | -0.068 | -0.0172 | 0.505 | 0.252 | 0.321 | 0.688 | 0.14 | 0.352 | 0.235 | 0.906 | 0.616 | 0.572 | 0.611 | 0.292 | 0.39 | 0.478 | 1 | 0.483 | 0.761
CC1(C)CCC(CN2CCN(c3ccc(C(=O)NS(=O)(=O)c4ccc(NCC5CCOCC5)c([N+](=O)[O-])c4)c(Oc4cnc5[nH]ccc5c4)c3)CC2)=C(c2ccc(Cl)cc2)C1 [Venetoclax] + CN(C)CCCOc1ccc(-c2ccc3ncc4c(c3c2)n(C2CCOCC2)c(=O)n4C)cn1 [AZD0156] (first compound max 1 µM, 7x7, partner max 1 µM) | 0.007 | -0.0418 | 0.0191 | 0.152 | 0.174 | 0.271 | 0.361 | 0.42 | 0.116 | 0.105 | 0.445 | 0.646 | 0.248 | 0.221 | 0.349 | 0.269 | 0.293 | 0.458 | 0.344 | 0.613
CN(CCO)CC[C@H](CSc1ccccc1)Nc1ccc(S(=O)(=O)NC(=O)c2ccc(N3CCC([C@@H](O)c4ccccc4-c4ccc(Cl)cc4)CC3)cc2)cc1S(=O)(=O)C(F)(F)F [AZD4320] + C=CCn1c(=O)c2cnc(Nc3ccc(N4CCN(C)CC4)cc3)nc2n1-c1cccc(C(C)(C)O)n1 [AZD1775] (first compound max 1 µM, partner max 1 µM) | 0.0676 | 0.0322 | 0.0681 | 0.112 | 0.92 | 0.867 | 1 | 0.85 | 0.966 | 0.173 | 1 | 0.975 | 0.708 | 1 | 0.572 | 0.404 | 0.833 | 1 | 0.195 | 0.982
Cc1c2c(nn1C)CSCc1cc(n(C)n1)CSc1cc(c3ccccc3c1)OCCCc1c(C(=O)O)n(C)c3c-2c(Cl)ccc13 [AZD5991] + C[C@@H](Nc1cc(F)cc(F)c1)c1cc(C(=O)N(C)C)cc2c(=O)cc(N3CCOCC3)oc12 [AZD8186] (first compound max 1 µM, 7x7, partner max 3 µM) | 0.0352 | -0.0411 | -0.0203 | 0.356 | 0.266 | 0.283 | 0.706 | 0.303 | 0.418 | 0.528 | 0.48 | 0.436 | 0.421 | 0.958 | 0.354 | 0.287 | 0.349 | 0.805 | 0.504 | 0.986
COc1cccc(OCCCN)c1-c1cc(Nc2cnc(C#N)cn2)n[nH]1 [Prexasertib] + O=C(c1cc(Cc2n[nH]c(=O)c3ccccc23)ccc1F)N1CCN(C(=O)C2CC2)CC1 [Olaparib] (first compound max 1 µM, 7x7, partner max 10 µM) | -0.0022 | -0.0274 | 0.0298 | 0.404 | 0.326 | 0.643 | 0.884 | 0.706 | 0.48 | 0.202 | 0.896 | 0.785 | 0.812 | 0.931 | 0.58 | 0.378 | 0.668 | 0.991 | 0.479 | 0.983

Reference: the supplement of paper PMC11061612
